From patent US12091426B2, “Bifunctional degraders of hematopoietic progenitor kinase and therapeutic uses thereof” (Nurix Therapeutics, Inc., priority 2021, dated 2024)

Target: T1, HPK1 (Homo sapiens, UniProt Q92918)
T1 construct: A HiBiT tag was introduced by CRISPR on the N terminus of HPK1 in Jurkat cells; host or cells: Jurkat cells (ATCC TIB-152), monoclonal line with CRISPR knock-in of HiBiT at the endogenous HPK1 locus
Assay: HPK1 Cellular HiBit Degradation Assay
Type: cell-based
Details: HiBiT HPK1 Jurkat cells, 24 hrs; for DC50: concentration at which 50% of HPK1 was remaining, read-out: DC50 Category; for Dmax: Jurkat, maximum degradation vs DMSO vehicle control, read-out: Dmax Category
How it was run: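 Jurkat cells with CRISPR knock-in N-terminal HiBiT-HPK1 were treated with CTMs (11-point, 3.16-fold, 10 uM to 0.1 nM final) for 24 hrs at 37° C. HiBiT lytic luminescence, with parental Jurkat as background and DMSO as 100%, gave % HPK1 remaining; four-parameter fit yielded DC50 and Dmax (100 minus lowest % remaining).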

T1 sequence (Q92918 whole entry): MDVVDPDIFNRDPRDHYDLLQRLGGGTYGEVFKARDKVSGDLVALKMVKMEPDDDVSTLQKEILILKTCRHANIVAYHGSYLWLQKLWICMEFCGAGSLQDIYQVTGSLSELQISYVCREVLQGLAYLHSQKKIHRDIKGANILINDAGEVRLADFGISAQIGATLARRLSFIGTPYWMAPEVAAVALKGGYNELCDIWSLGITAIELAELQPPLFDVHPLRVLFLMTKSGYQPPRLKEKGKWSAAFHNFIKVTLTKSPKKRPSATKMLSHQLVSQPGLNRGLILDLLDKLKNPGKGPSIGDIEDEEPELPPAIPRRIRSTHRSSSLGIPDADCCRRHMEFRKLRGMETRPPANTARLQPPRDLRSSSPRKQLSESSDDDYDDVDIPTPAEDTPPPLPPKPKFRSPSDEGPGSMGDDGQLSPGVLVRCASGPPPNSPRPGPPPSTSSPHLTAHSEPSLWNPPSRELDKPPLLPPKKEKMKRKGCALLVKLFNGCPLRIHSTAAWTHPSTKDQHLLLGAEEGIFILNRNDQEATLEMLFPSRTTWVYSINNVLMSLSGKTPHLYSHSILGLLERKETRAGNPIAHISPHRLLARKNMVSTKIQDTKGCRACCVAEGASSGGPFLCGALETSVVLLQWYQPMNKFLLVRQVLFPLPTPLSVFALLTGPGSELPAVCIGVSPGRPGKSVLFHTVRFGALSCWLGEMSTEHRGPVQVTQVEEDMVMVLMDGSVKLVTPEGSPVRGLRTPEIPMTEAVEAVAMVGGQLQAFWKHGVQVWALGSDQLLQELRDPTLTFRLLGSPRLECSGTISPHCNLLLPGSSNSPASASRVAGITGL

DC50 [nM] | Dmax [%] | SMILES
100 to 500 | 50 to 70 | CC(C)n1cnc2cc(-c3ccc4c(c3)N([C@H]3C[C@@H](N5CCCCC5)C3)C(=O)C43CCN(C(=O)C4CCN(C(=O)[C@H]5CC[C@H](Nc6cncc(C7CCC(=O)NC7=O)c6)CC5)CC4)CC3)nc(Nc3ccccc3F)c21 (mixture of isomers) [Example 58, (3RS)-3-(5-{[(1R,4R)-4-{4-[(6-{4-[(2-fluorophenyl)amino]-3-(propan-2-yl)-3H-imidazo[4,5-c]pyridin-6-yl}-2-oxo-1-[(1S,3S)-3-(piperidin-1-yl)cyclobutyl]-1,2-dihydrospiro[indole-3,4′-piperidin]-1′-yl)carbonyl]piperidine-1-carbonyl}cyclohexyl]amino}pyridin-3-yl)piperidine-2,6-dione]
< 100 | 50 to 70 | CC(C)n1cnc2cc(-c3ccc4c(c3)N([C@H]3C[C@@H](N5CCCCC5)C3)C(=O)C43CCN(C(=O)C4CCN(C(=O)[C@H]5CC[C@H](Oc6ccc(C7CCC(=O)NC7=O)cc6)CC5)CC4)CC3)nc(NC3CC3)c21 (mixture of isomers) [Example 59, (3RS)-3-(4-{[(1R,4R)-4-[4-({6-[4-(cyclopropylamino)-3-(propan-2-yl)-3H-imidazo[4,5-c]pyridin-6-yl]-2-oxo-1-[(1S,3S)-3-(piperidin-1-yl)cyclobutyl]-1,2-dihydrospiro[indole-3,4′-piperidin]-1′-yl}carbonyl)piperidine-1-carbonyl]cyclohexyl]oxy}phenyl)piperidine-2,6-dione]
< 100 | 70 to 85 | CC(C)n1cnc2cc(-c3ccc4c(c3)N([C@H]3C[C@@H](N5CCCCC5)C3)C(=O)C43CCN(C(=O)C4CCN(C(=O)[C@H]5CC[C@H](Oc6ccc(C7CCC(=O)NC7=O)cc6)CC5)CC4)CC3)nc(Nc3ccccc3F)c21 (mixture of isomers) [Example 60, (3RS)-3-(4-{[(1R,4R)-4-{4-[(6-{4-[(2-fluorophenyl)amino]-3-(propan-2-yl)-3H-imidazo[4,5-c]pyridin-6-yl}-2-oxo-1-[(1S,3S)-3-(piperidin-1-yl)cyclobutyl]-1,2-dihydrospiro[indole-3,4′-piperidin]-1′-yl)carbonyl]piperidine-1-carbonyl}cyclohexyl]oxy}phenyl)piperidine-2,6-dione]
< 100 | 50 to 70 | CC(C)n1cnc2cc(-c3ccc4c(c3)N([C@H]3C[C@@H](N5CCCCC5)C3)C(=O)C43CCN(C(=O)C4CCN(C(=O)[C@H]5CC[C@H](Oc6ccc(C7CCC(=O)NC7=O)cc6)CC5)CC4)CC3)nc(Nc3ccncc3F)c21 (mixture of isomers) [Example 61, (3RS)-3-(4-{[(1R,4R)-4-{4-[(6-{4-[(3-fluoropyridin-4-yl)amino]-3-(propan-2-yl)-3H-imidazo[4,5-c]pyridin-6-yl}-2-oxo-1-[(1S,3S)-3-(piperidin-1-yl)cyclobutyl]-1,2-dihydrospiro[indole-3,4′-piperidin]-1′-yl)carbonyl]piperidine-1-carbonyl}cyclohexyl]oxy}phenyl)piperidine-2,6-dione]
100 to 500 | 50 to 70 | CC(C)n1cnc2cc(-c3ccc4c(c3)N([C@H]3C[C@@H](N5CCCCC5)C3)C(=O)C43CCN(C(=O)C4CCN(C(=O)[C@H]5CC[C@H](Oc6ccc(C7CCC(=O)NC7=O)cn6)CC5)CC4)CC3)nc(Nc3ccccc3F)c21 (mixture of isomers) [Example 62, (3RS)-3-(6-{[(1R,4R)-4-{4-[(6-{4-[(2-fluorophenyl)amino]-3-(propan-2-yl)-3H-imidazo[4,5-c]pyridin-6-yl}-2-oxo-1-[(1S,3S)-3-(piperidin-1-yl)cyclobutyl]-1,2-dihydrospiro[indole-3,4′-piperidin]-1′-yl)carbonyl]piperidine-1-carbonyl}cyclohexyl]oxy}pyridin-3-yl)piperidine-2,6-dione]
< 100 | 50 to 70 | CC(C)n1cnc2cc(-c3ccc4c(c3)N([C@H]3C[C@@H](N5CCCCC5)C3)C(=O)C43CCN(C(=O)C4CCN(C(=O)[C@H]5CC[C@H](Cn6cc7cc(C8CCC(=O)NC8=O)ccc7n6)CC5)CC4)CC3)nc(Nc3ccccc3F)c21 (mixture of isomers) [Example 63, (3RS)-3-(2-{[(1R,4R)-4-{4-[(6-{4-[(2-fluorophenyl)amino]-3-(propan-2-yl)-3H-imidazo[4,5-c]pyridin-6-yl}-2-oxo-1-[(1S,3S)-3-(piperidin-1-yl)cyclobutyl]-1,2-dihydrospiro[indole-3,4′-piperidin]-1′-yl)carbonyl]piperidine-1-carbonyl}cyclohexyl]methyl}-2H-indazol-5-yl)piperidine-2,6-dione]
< 100 | 70 to 85 | CC(C)n1cnc2cc(-c3ccc4c(c3)N([C@H]3C[C@@H](N5CCCCC5)C3)C(=O)C43CCN(C(=O)C4CCN(C(=O)[C@H]5CC[C@H](Cn6ncc7cc(C8CCC(=O)NC8=O)ccc76)CC5)CC4)CC3)nc(Nc3ccccc3F)c21 (mixture of isomers) [Example 64, (3RS)-3-(1-{[(1R,4R)-4-{4-[(6-{4-[(2-fluorophenyl)amino]-3-(propan-2-yl)-3H-imidazo[4,5-c]pyridin-6-yl}-2-oxo-1-[(1S,3S)-3-(piperidin-1-yl)cyclobutyl]-1,2-dihydrospiro[indole-3,4′-piperidin]-1′-yl)carbonyl]piperidine-1-carbonyl}cyclohexyl]methyl}-1H-indazol-5-yl)piperidine-2,6-dione]
100 to 500 | 70 to 85 | CC(C)n1cnc2cc(-c3ccc4c(c3)N([C@H]3C[C@@H](N5CCCCC5)C3)C(=O)C43CCN(C(=O)C4CCN(C(=O)[C@H]5CCN(c6ccc(C7CCC(=O)NC7=O)cn6)C5)CC4)CC3)nc(Nc3ccccc3F)c21 (mixture of isomers) [Example 65, (3RS)-3-{6-[(3S)-3-{4-[(6-{4-[(2-fluorophenyl)amino]-3-(propan-2-yl)-3H-imidazo[4,5-c]pyridin-6-yl}-2-oxo-1-[(1S,3S)-3-(piperidin-1-yl)cyclobutyl]-1,2-dihydrospiro[indole-3,4′-piperidin]-1′-yl)carbonyl]piperidine-1-carbonyl}pyrrolidin-1-yl]pyridin-3-yl}piperidine-2,6-dione]
< 100 | 70 to 85 | CC(C)n1cnc2cc(-c3ccc4c(c3)N([C@H]3C[C@@H](N5CCCCC5)C3)C(=O)C43CCN(C(=O)C4CCN(C(=O)C5CCN(c6ccc(C7CCC(=O)NC7=O)cc6)CC5)CC4)CC3)nc(Nc3ccccc3F)c21 (mixture of isomers) [Example 67, (3RS)-3-[4-(4-{4-[(6-{4-[(2-fluorophenyl)amino]-3-(propan-2-yl)-3H-imidazo[4,5-c]pyridin-6-yl}-2-oxo-1-[(1S,3S)-3-(piperidin-1-yl)cyclobutyl]-1,2-dihydrospiro[indole-3,4′-piperidin]-1′-yl)carbonyl]piperidine-1-carbonyl}piperidin-1-yl)phenyl]piperidine-2,6-dione]
100 to 500 | 70 to 85 | Cc1cc(F)c(Nc2nc(-c3ccc4c(c3)N([C@H]3C[C@@H](N5CCCCC5)C3)C(=O)C43CCN(C(=O)C4CCN(C(=O)C5CCN(c6ccc(C7CCC(=O)NC7=O)cn6)CC5)CC4)CC3)cc3ncn(C(C)C)c23)cc1C(=O)NC(C)C (mixture of isomers) [Example 72, 5-[(6-{1′-[1-(1-{5-[(3RS)-2,6-dioxopiperidin-3-yl]pyridin-2-yl}piperidine-4-carbonyl)piperidine-4-carbonyl]-2-oxo-1-[(1S,3S)-3-(piperidin-1-yl)cyclobutyl]-1,2-dihydrospiro[indole-3,4′-piperidin]-6-yl}-3-(propan-2-yl)-3H-imidazo[4,5-c]pyridin-4-yl)amino]-4-fluoro-2-methyl-N-(propan-2-yl)benzamide]
< 100 | > 85 | CC(C)n1cnc2cc(-c3ccc4c(c3)N([C@H]3C[C@@H](N5CCCCC5)C3)C(=O)C43CCN(C(=O)C4CCN(C(=O)C5CCN(c6ccc(C7CCC(=O)NC7=O)cn6)CC5)CC4)CC3)nc(Nc3ccccc3F)c21 (mixture of isomers) [Example 74, (3RS)-3-[6-(4-{4-[(6-{4-[(2-fluorophenyl)amino]-3-(propan-2-yl)-3H-imidazo[4,5-c]pyridin-6-yl}-2-oxo-1-[(1S,3S)-3-(piperidin-1-yl)cyclobutyl]-1,2-dihydrospiro[indole-3,4′-piperidin]-1′-yl)carbonyl]piperidine-1-carbonyl}piperidin-1-yl)pyridin-3-yl]piperidine-2,6-dione]
100 to 500 | 70 to 85 | CC(C)n1cnc2cc(-c3ccc4c(c3)N([C@H]3C[C@@H](N(C)C)C3)C(=O)C43CCN(C(=O)C4CCN(C(=O)C5CCN(c6ccc(C7CCC(=O)NC7=O)cn6)CC5)CC4)CC3)nc(Nc3ccccc3F)c21 (mixture of isomers) [Example 75, (3RS)-3-[6-(4-{4-[(6-{4-[(2-fluorophenyl)amino]-3-(propan-2-yl)-3H-imidazo[4,5-c]pyridin-6-yl}-2-oxo-1-[(1S,3S)-3-(dimethylamino)cyclobutyl]-1,2-dihydrospiro[indole-3,4′-piperidin]-1′-yl)carbonyl]piperidine-1-carbonyl}piperidin-1-yl)pyridin-3-yl]piperidine-2,6-dione]
100 to 500 | > 85 | CC(C)n1cnc2cc(-c3ccc4c(c3)N([C@H]3C[C@@H](N5CCCCC5)C3)C(=O)C43CCN(C(=O)C4CCN(C(=O)C5CCN(c6ccc(C7CCC(=O)NC7=O)cn6)CC5)CC4)CC3)nc(Oc3ccccc3F)c21 (mixture of isomers) [Example 76, (3RS)-3-(6-{4-[4-({6-[4-(2-fluorophenoxy)-3-(propan-2-yl)-3H-imidazo[4,5-c]pyridin-6-yl]-2-oxo-1-[(1S,3S)-3-(piperidin-1-yl)cyclobutyl]-1,2-dihydrospiro[indole-3,4′-piperidin]-1′-yl}carbonyl)piperidine-1-carbonyl]piperidin-1-yl}pyridin-3-yl)piperidine-2,6-dione]
